Our source for the EC50 values is patent publication US12612412B2, “Antiviral heterocyclic compounds” (Enanta Pharmaceuticals, Inc., priority 2021, dated 2026).

Where two headings read alike, the source gives them in different places.

Assay [1] deals with HMPV clinical isolate TN/1501/A1. As to the kind of experiment: HMPV antiviral assay Method-B (clinical isolate TN/1501/A1 in LLC-MK2 cells, ATP-Lite readout). In kind it is cell-based, Human metapneumovirus (HMPV). The following applies: human metapneumovirus, LLC-MK2, 144 h, hMPV WT1501 (clinical isolate TN/1501/A1), 6 days. Put shortly: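 EC50 derived by four-parameter logistic fit of percent cell health, measured by ATP-Lite luminescence and normalised to virus-only and uninfected-cell controls. Compounds run in duplicate from 10 μM top, 3-fold, 10 points. Infection: LLC-MK2 cells, MOI 0.014, 2 μg/mL final TPCK-trypsin, serum-free, 6 days at 37° C.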

In assay [2] the test system is genotype A, "Long" strain RSV. As to the kind of experiment: RSV-A assay (CPE protection in Hep-2 cells, ATPlite readout). In kind it is cell-based, Human respiratory syncytial virus (HRSV). Conditions: human respiratory syncytial virus, MOI 0.1, CPE protection. The procedure, abridged: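 Hep-2 cells (8,000/well) were treated with 2-fold serial compound dilutions in duplicate and infected with RSV at MOI 0.1. After 5 days, protection from cytopathic effect was measured as cell viability by ATPlite luminescence, and EC50 values were derived.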

The mark [3] stands for this setting: RSV-A Long strain, read-out: Human RSV-A (“Long”) EC50.
The mark [4] stands for this setting: genotype A “Long” strain RSV, read-out: Human RSV-A (“Long”).

Regarding `COc1cc(C(=O)NC[C@](O)(c2cc3c(c(-c4c(F)cc(F)cc4Cl)n2)OC[C@]3(C)C(N)=O)C(F)(F)F)cc2cn(C3CC3)nc12` [Example 1235], the values for the EC50 in assay [1] and in assay [2] (setting [3]) were less than 500 nM and less than 200 nM, respectively.
Consider `COc1ncc2cc(C(=O)NC[C@](O)(c3cc4c(c(-c5ccc(F)cc5)n3)OC[C@]4(C)C(N)=O)C(F)(F)F)cc(OC)c2n1` [Example 1143], for which the EC50 was greater than 500 nM in assay [1] and less than 200 nM in assay [2] (setting [3]).
Taken in the same sequence, the figures for `COc1cc(C(=O)NC[C@](O)(c2cc3c(c(-c4cccc(Br)c4F)n2)OC[C@]3(C)C(N)=O)C2CC2)cc2cn(C(F)F)nc12` [Example 1098] were less than 500 nM and less than 200 nM.
The corresponding values for `COc1cc(C(=O)NC[C@](O)(c2cc3c(c(-c4ccc5c(c4)CC(=O)N5)n2)OC[C@]3(C)C(N)=O)C(F)(F)F)cc2cn(C3CC3)nc12` [Example 971] are greater than 500 nM and greater than 200 nM.
For `COc1cc(C(=O)NC[C@](O)(c2cc3c(c(-c4cc(F)c(F)c(F)c4F)n2)OC[C@]3(C)C(N)=O)C(F)(F)F)cc2cn(C3CC3)nc12` [Example 996], the EC50 in assay [1] is less than 500 nM; in assay [2] (setting [3]), less than 200 nM.
`COc1cc(C(=O)NC[C@](O)(c2cc3c(c(-c4ccc(F)c(C)c4)n2)OC[C@]3(C)C(N)=O)C(F)(F)F)cc2cn(C3CC3)nc12` [Example 636]: the EC50 in assay [1] was less than 500 nM; in assay [2] (setting [4]), less than 200 nM.
Taken in the same sequence, the figures for `COc1cc(C(=O)NC[C@](O)(c2cc3c(c(-c4ccc5c(c4)OC(F)(F)O5)n2)OC[C@]3(C)C(N)=O)C2CC2)cc2cc(C3CC3)nn12` [Example 826] were less than 500 nM and less than 200 nM.
On to `C[C@]1(C(N)=O)COc2c1cc([C@@](O)(CNC(=O)c1cc(Cl)c3nn(C4CC4)cc3c1)C(F)(F)F)nc2-c1cc(Cl)c(F)c(Cl)c1` [Example 673], for which the EC50 in assay [1] is greater than 500 nM; in assay [2] (setting [4]), less than 200 nM.
For `COc1cc(C(=O)NC[C@](O)(c2cc3c(c(-c4ccc(Cl)cc4F)n2)OC[C@]3(C)C(N)=O)C2CC2)cc2cn(C3(Cl)CC3)nc12` [Example 843], the values for the EC50 in assay [1] and in assay [2] (setting [3]) were less than 500 nM and less than 200 nM, respectively.
As to `C[C@]1(C(N)=O)COc2c1cc([C@@](O)(CNC(=O)c1ccnc3nccn13)C(F)(F)F)nc2-c1ccc(F)cc1` [Example 489], the EC50 in assay [1] is greater than 500 nM; in assay [2] (setting [4]), greater than 200 nM.
For `COc1cc(C(=O)NC[C@](O)(c2cc3c(c(-c4cccc(F)c4Cl)n2)OC[C@]3(C)C(N)=O)C(F)(F)F)cc2cc(Br)cnc12` [Example 1121], the EC50 in assay [1] is less than 500 nM; in assay [2] (setting [3]) it was less than 200 nM.
`COc1cc(C(=O)NC[C@](O)(c2cc3c(c(-c4csc(C(F)(F)F)c4)n2)OC[C@]3(C)C(N)=O)C(F)(F)F)cc2cn(C3CC3)nc12` [Example 946]: the results for the EC50 in assay [1] and in assay [2] (setting [3]) were less than 500 nM and less than 200 nM, respectively.
Take `COc1cc(C(=O)NC[C@](O)(c2cc3c(c(-c4ccc(F)cc4)n2)OC[C@]3(C)C(=O)NCC(C)(C)O)C(F)(F)F)cc2cn(C3CC3)nc12` [Example 1170]: the EC50 in assay [1] is greater than 500 nM; in assay [2] (setting [3]), less than 200 nM.
On to `C[C@]1(C(N)=O)COc2c1cc([C@@](O)(CNC(=O)c1cc(OC3CC3)c3nn(C(F)F)cc3c1)C1CC1)nc2-c1ccc2c(c1)OC(F)(F)O2` [Example 847], for which the EC50 is less than 500 nM in assay [1] and less than 200 nM in assay [2] (setting [3]).
Regarding `COc1cc(C(=O)NC[C@](O)(c2cc3c(c(-c4ccc(F)cc4)n2)OC[C@]3(C)C(N)=O)C(F)(F)F)cc2c(C)onc12` [Example 888], the values for the EC50 in assay [1] and in assay [2] (setting [3]) were greater than 500 nM and less than 200 nM, respectively.
Regarding `CC[C@](O)(CNC(=O)c1cc(OC)c2nc(C)c(Cl)cc2c1)c1cc2c(c(-c3ccc(F)cc3)n1)OC[C@]2(C)C(N)=O` [Example 643], the EC50 in assay [1] is less than 500 nM; in assay [2] (setting [4]), less than 200 nM.
For `COc1cc(C(=O)NC[C@](O)(c2cc3c(c(-c4ccc(F)cc4)n2)OC[C@@]3(C(N)=O)C(F)F)C(F)(F)F)cc2cn(C3CC3)nc12` [Example 999], the EC50 was less than 500 nM in assay [1] and less than 200 nM in assay [2] (setting [3]).
In the case of `C[C@]1(C(N)=O)COc2c1cc([C@@](O)(CNC(=O)c1cc(OCCF)c3nn(C4(F)CC4)cc3c1)C(F)(F)F)nc2-c1csc2c(F)cccc12` [Example 612], the EC50 in assay [1] was less than 500 nM; in assay [2] (setting [4]), less than 200 nM.
As for `COc1cc(C(=O)NC[C@](O)(c2cc3c(c(-c4ccc(F)c(C(F)(F)F)c4)n2)OC[C@]3(C)C(N)=O)C2CC2)cc2cn(C(F)F)nc12` [Example 655], the EC50 in assay [1] is less than 500 nM; in assay [2] (setting [4]), less than 200 nM.
Taken in the same sequence, the figures for `COc1cc(C(=O)NC[C@](O)(c2cc3c(c(-c4ccc(F)c(Cl)c4F)n2)OC[C@]3(C)C(N)=O)C2CC2)cc2cn(C3CC3)nc12` [Example 554] were less than 500 nM and less than 200 nM.
Taken in the same sequence, the figures for `COc1cc(C(=O)NC[C@](O)(c2cc3c(c(-c4ccc5c(c4)OC(F)(F)O5)n2)OC[C@]3(C)C(N)=O)C2CC2)cc2cc(Br)cnc12` [Example 543] were less than 500 nM and less than 200 nM.
Consider `C[C@]1(C(N)=O)COc2c1cc([C@@](O)(CNC(=O)c1cc(O)c3nn(C4CC4)cc3c1)C(F)(F)F)nc2-c1ccc(F)cc1` [Example 590], for which the EC50 in assay [1] was greater than 500 nM; in assay [2] (setting [4]), less than 200 nM.
As to `COc1cc(C(=O)NC[C@](O)(c2cc3c(c(-c4ccc5c(c4)OC(F)(F)O5)n2)OC[C@]3(C(N)=O)C(F)F)C(F)(F)F)cc2cc(Cl)c(C)nc12` [Example 1036], the EC50 in assay [1] was greater than 500 nM; in assay [2] (setting [3]) it was greater than 200 nM.
The corresponding values for `COc1cc(C(=O)NC[C@@](O)(c2cc3c(c(-c4c(F)cccc4F)n2)OC[C@]3(C)C(N)=O)C(F)(F)F)cc2cn(C3CC3)nc12` [Example 1232] are greater than 500 nM and greater than 200 nM.
In the case of `COc1cc(C(=O)NC[C@](O)(c2cc3c(c(-c4ccc(F)c(Cl)c4)n2)OC[C@]3(CF)C(N)=O)C(F)(F)F)cc2cc(Cl)c(C)nc12` [Example 1047], the EC50 in assay [1] is less than 500 nM; in assay [2] (setting [3]), less than 200 nM.
As for `COc1cc(C(=O)NC[C@](O)(c2nc(-c3ccc(F)cc3)c3c(c2F)[C@@](C)(C(N)=O)CO3)C(F)(F)F)cc2cc(Cl)c(C)nc12` [Example 855], the results for the EC50 in assay [1] and in assay [2] (setting [3]) were less than 500 nM and less than 200 nM, respectively.
Regarding `Cc1nc2c(OC3CC3)cc(C(=O)NC[C@](O)(c3cc4c(c(-c5csc6c(F)cccc56)n3)OC[C@]4(C)C(N)=O)C(F)(F)F)cc2cc1Cl` [Example 603], the values for the EC50 in assay [1] and in assay [2] (setting [4]) were greater than 500 nM and less than 200 nM, respectively.
With `COc1cc(C(=O)NC[C@](O)(c2cc3c(c(-c4c(F)cc(Cl)cc4F)n2)OC[C@]3(C)C(N)=O)C2CC2)cc2cc(Cl)c(C)nc12` [Example 1159], the EC50 in assay [1] was less than 500 nM; in assay [2] (setting [3]), less than 200 nM.
As to `COc1cc(C(=O)NC[C@](O)(c2cc3c(c(-c4ccc(F)c(F)c4F)n2)OC[C@]3(C)C(N)=O)C(F)(F)F)cc2cn(C3CC3)nc12` [Example 915], the EC50 in assay [1] was less than 500 nM; in assay [2] (setting [3]), less than 200 nM.
Regarding `COc1cc(C(=O)NC[C@](O)(c2cc3c(c(-c4ccc(F)c(F)c4Cl)n2)OC[C@]3(C)C(N)=O)C2CC2)cc2cn(C(F)F)nc12` [Example 563], the EC50 in assay [1] was less than 500 nM; in assay [2] (setting [4]), less than 200 nM.
Consider `COc1cc(C(=O)NC[C@](O)(c2cc3c(c(-c4c(F)ccc(Cl)c4F)n2)OC[C@]3(C)C(N)=O)C2CC2)cc2cn(C3CC3)nc12` [Example 1163], for which the EC50 in assay [1] was less than 500 nM; in assay [2] (setting [3]) it was less than 200 nM.
As to `COc1cc(C(=O)NC[C@](O)(c2cc3c(c(-c4ccc5c(c4)OC(F)(F)O5)n2)OC[C@@]3(C(N)=O)C(F)F)C2CC2)cc2cc(C3CC3)nn12` [Example 1013], the EC50 in assay [1] is less than 500 nM; in assay [2] (setting [3]), less than 200 nM.
As for `C[C@]1(C(N)=O)COc2c1cc([C@@](O)(CNC(=O)c1cc(Cl)c3nn(C4CC4)cc3c1)C(F)(F)F)nc2-c1cc(Cl)c(F)cc1F` [Example 619], the EC50 in assay [1] was less than 500 nM; in assay [2] (setting [4]), less than 200 nM.
Take `COc1cc(C(=O)NC[C@](O)(c2cc3c(c(-c4ccc(F)cc4)n2)OC[C@]3(CF)C(N)=O)C2CC2)cc2cc(C3CC3)nn12` [Example 1060]: the figures for the EC50 in assay [1] and in assay [2] (setting [3]) were less than 500 nM and less than 200 nM, respectively.
Taken in the same sequence, the figures for `Cc1cnc2c(OC(F)F)cc(C(=O)NC[C@](O)(c3cc4c(c(-c5ccc(F)c(Cl)c5)n3)OC[C@]4(C(N)=O)C(F)F)C3CC3)cc2c1` [Example 1028] were greater than 500 nM and greater than 200 nM.
For the compound `COc1cc(C(=O)NC[C@](O)(c2cc3c(c(-c4cc(Cl)c(F)c(Cl)c4)n2)OC[C@]3(C)C(N)=O)C(F)(F)F)cc2cn(C(F)F)nc12` [Example 670], the EC50 in assay [1] was greater than 500 nM; in assay [2] (setting [4]), less than 200 nM.
The corresponding values for `[2H]C([2H])([2H])[C@](O)(CNC(=O)c1cc(OC)c2nn(C3CC3)cc2c1)c1cc2c(c(-c3ccc(F)cc3)n1)OC[C@]2(C)C(N)=O` [Example 645] are greater than 500 nM and less than 200 nM.
The corresponding values for `COc1cc(C(=O)NC[C@](O)(c2cc3c(c(-c4ccc(F)c(F)c4Cl)n2)OC[C@]3(C)C(N)=O)C(F)(F)F)cc2cn(C(F)F)nc12` [Example 776] are less than 500 nM and less than 200 nM.
Consider `COc1cc(C(=O)NC[C@](O)(c2cc3c(c(-c4cnc(C#N)c(Cl)c4)n2)OC[C@]3(C)C(N)=O)C(F)(F)F)cc2cn(C3CC3)nc12` [Example 583], for which the EC50 in assay [1] was greater than 500 nM; in assay [2] (setting [4]), less than 200 nM.
`COc1cc(C(=O)NC[C@](O)(c2cc3c(c(-c4cc(Cl)ccc4F)n2)OC[C@]3(C)C(N)=O)C2CC2)cc2cn(C3(F)CC3)nc12` [Example 839]: the EC50 was less than 500 nM in assay [1] and less than 200 nM in assay [2] (setting [3]).
